Patent US9708368B2, “Linear peptide antibiotics” (priority 2012, dated 2017)
Converted amounts (≈) assume the structure as drawn. Where two headings read alike, the source gives them in different places. Square brackets hold non-standard residues; d marks the D form. Peptide text beside a SMILES is read from it. * marks the point of attachment. ξ: configuration not given here. Biphenylcarbonyl(4'-Bu) = CCCCc1ccc(-c2ccc(C(=O)*)cc2)cc1; X1 = C[C@H](N*)B1OC2C[C@@H]3C[C@@H](C3(C)C)[C@]2(C)O1; Benzoyl(4-hexyl) = CCCCCCc1ccc(C(=O)*)cc1; X5 = C[C@H](N*)B1OC2C3CCC(C3(C)C)C2(C)O1; NMeThr(3ξ) = CN[C@H](C(=O)O)C(C)O; Myristoyl = CCCCCCCCCCCCCC(=O)*; NMeE = CN[C@@H](CCC(=O)O)C(=O)O; Thr(3ξ) = CC(O)[C@H](N)C(=O)O; NMeK = CN[C@@H](CCCCN)C(=O)O; Decanoyl = CCCCCCCCCC(=O)*; boroGly = OB(O)CN*; ξP = O=C(O)C1CCCN1; βAla = NCCC(=O)O; ξA = CC(N)C(=O)O

Columns and labels:
[1] = system: Methicillin Resistant Staphylococcus aureus strain USA 300 (NRS384)
Description: (§1) In vitro antimicrobial activity of each compound was determined by measuring minimal inhibitor concentrations (MICs) using the broth micro-dilution technique as approved by the Clinical and Laboratory Standards Institute (CLSI). […] Cells were inoculated onto Trypyticase Soy Agar or Luria Agar containing 16 ng/ml of anhydrotetracycline respectively and grown at 35° C. for 20 hours. Inocula suspensions were made by scraping cells into 1 mL of testing media (cation adjusted Mueller Hinton Broth supplemented with 0.002% v/v Tween-80) and diluting to a final OD600 nm of 0.01.
(§2) Test compounds were prepared in DMSO at a concentration of 10 mg/ml. […] Inocula suspensions were added to the two fold serial dilutions of test compounds to a final density of OD OD600 nm of 0.0005 and incubated stationary at 35° C. for 22 hours, after which the plates were examined visually.

S. aureus SPase = S. aureus SPase (Staphylococcus aureus, UniProt P0A070); assay: biochemical
[2] = system: Escherichia coli MC4100 IMP-4213 in which transcription of the SPase encoding gene is under control of a tetracycline inducible promoter; conditions: Method A; E. coli MC4100 IMP-4213 with decreased SPase expression; 35° C., 22 hours
Description: as §1, §2

E. coli SPase = E. coli SPase (Escherichia coli, UniProt P00803); assay: Biochemical SPase activity assay (fluorogenic peptide substrate), E. coli enzyme
[3] = Method A, MRSA USA 300 (NRS384), 35° C., 22 hours

Chain of E. coli SPase (P00803 whole entry): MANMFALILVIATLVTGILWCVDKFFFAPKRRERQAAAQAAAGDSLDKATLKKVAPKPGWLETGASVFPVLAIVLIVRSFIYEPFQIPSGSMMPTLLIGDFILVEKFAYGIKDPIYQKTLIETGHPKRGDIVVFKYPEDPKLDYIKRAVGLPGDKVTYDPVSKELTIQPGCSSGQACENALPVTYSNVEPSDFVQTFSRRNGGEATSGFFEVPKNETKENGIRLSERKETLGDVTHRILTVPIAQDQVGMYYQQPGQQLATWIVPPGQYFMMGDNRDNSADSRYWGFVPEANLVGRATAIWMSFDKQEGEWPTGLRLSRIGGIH
Chain of S. aureus SPase (P0A070 whole entry): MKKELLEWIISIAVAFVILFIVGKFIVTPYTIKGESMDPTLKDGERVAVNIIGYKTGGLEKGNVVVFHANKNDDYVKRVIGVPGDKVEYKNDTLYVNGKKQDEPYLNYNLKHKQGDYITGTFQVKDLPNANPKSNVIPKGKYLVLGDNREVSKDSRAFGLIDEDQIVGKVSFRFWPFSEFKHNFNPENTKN

Row | Compound | MIC (μg/mL) S. aureus ([1]; USA 300, 22 h) [µg/mL] | IC50 (S. aureus SPase) [nM] | MIC (μg/mL) E. coli [2] [µg/mL] | MIC (μg/mL) S. aureus [1, 3] [µg/mL] | IC50 (E. coli SPase) [nM]
1 | CCCCCCCCCCCCCC(=O)N[C@H](CO)C(=O)N[C@H](C)C(=O)NCC(=O)N(C)[C@H](C(=O)N[C@@H](C)C(=O)N[C@@H](CC(C)C)C(=O)NC(C)C(=O)C(=O)NC)C(C)O (mixture of isomers) [Compound 110] | >64 | 150 | >64 | – | –
2 | CCCCCCCCCC(=O)N[C@@H](CC(C)C)C(=O)N[C@H](C(=O)N1CCC[C@@H]1C(=O)N[C@H](C(=O)N[C@@H](C)C(=O)N[C@@H](Cc1ccc(O)cc1)C(=O)NC(C)C(=O)C(=O)NC)C(C)O)C(C)O (mixture of isomers) [Compound 111] | – | 18000 | >64 | >64 | 4900
3 | CCCCCCCCCCCCCC(=O)N[C@@H](CC(C)C)C(=O)N[C@H](C(=O)N1CCC[C@@H]1C(=O)N[C@H](C(=O)N[C@@H](C)C(=O)N[C@@H](Cc1ccc(O)cc1)C(=O)NC(C)C(=O)C(=O)NC)C(C)O)C(C)O (mixture of isomers) [Compound 112] | – | 3400 | >64 | >64 | 31000
4 | CCCCCCc1ccc(C(=O)N[C@H](CO)C(=O)N[C@H](C)C(=O)NCC(=O)N(C)[C@H](C(=O)N[C@@H](C)C(=O)N[C@@H](CC(N)=O)C(=O)NCC=O)C(C)O)cc1 (stereo partly drawn) [Compound 101] ({Benzoyl(4-hexyl)}-[dS][dA]G[NMeThr(3ξ)]ANG-aldehyde) | – | 86 | >64 | >64 | 11000
5 | CCCCCCc1ccc(C(=O)N[C@H](CO)C(=O)N[C@H](C)C(=O)NCC(=O)N(C)[C@H](C(=O)N[C@@H](C)C(=O)N[C@@H](CC(C)C)C(=O)NCC=O)C(C)O)cc1 (stereo partly drawn) [Compound 102] ({Benzoyl(4-hexyl)}-[dS][dA]G[NMeThr(3ξ)]ALG-aldehyde) | – | 9.7 | >64 | >64 | 18000
6 | CCCCCCCCCCCCCC(=O)N[C@@H](CC(C)C)C(=O)N[C@H](C(=O)N1CCC[C@@H]1C(=O)N[C@H](C(=O)N[C@@H](C)C(=O)N[C@@H](CC(N)=O)C(=O)NC(C)C=O)C(C)O)C(C)O (stereo partly drawn) [Compound 108] (Myristoyl-L[Thr(3ξ)][dP][Thr(3ξ)]AN[ξA]-aldehyde) | – | 2100 | >64 | 64 (≈ 72.6 µM) | 20000
7 | CCCCCCCCCC(=O)N[C@@H](CC(C)C)C(=O)N[C@H](C(=O)N1CCC[C@@H]1C(=O)N[C@H](C(=O)N[C@@H](C)C(=O)N[C@@H](Cc1ccc(O)cc1)C(=O)NC(C)C=O)C(C)O)C(C)O (stereo partly drawn) [Compound 109] (Decanoyl-L[Thr(3ξ)][dP][Thr(3ξ)]AY[ξA]-aldehyde) | – | 4900 | >64 | >64 | –
8 | CCCCc1ccc(-c2ccc(C(=O)N[C@H](CO)C(=O)N[C@H](C)C(=O)NCC(=O)N[C@H](C(=O)N[C@@H](C)C(=O)N[C@@H](CC(N)=O)C(=O)NCB(O)O)C(C)O)cc2)cc1 (stereo partly drawn) [Compound 115] ({Biphenylcarbonyl(4'-Bu)}-[dS][dA]G[Thr(3ξ)]AN-boroGly) | – | 170 | >64 | >64 | 1000
9 | CCCCc1ccc(-c2ccc(C(=O)N[C@H](CO)C(=O)N[C@H](C)C(=O)N3CCC[C@H]3C(=O)N[C@H](C(=O)N[C@@H](C)C(=O)N[C@@H](CC(N)=O)C(=O)NCB(O)O)C(C)O)cc2)cc1 (stereo partly drawn) [Compound 116] ({Biphenylcarbonyl(4'-Bu)}-[dS][dA]P[Thr(3ξ)]AN-boroGly) | – | 38 | >64 | >64 | 310
10 | CCCCc1ccc(-c2ccc(C(=O)N[C@H](CO)C(=O)N[C@H](C)C(=O)NCC(=O)N3CCCC3C(=O)N[C@@H](C)C(=O)N[C@@H](CC(N)=O)C(=O)NCB(O)O)cc2)cc1 (stereo partly drawn) [Compound 117] ({Biphenylcarbonyl(4'-Bu)}-[dS][dA]G[ξP]AN-boroGly) | – | 350 | >64 | >64 | 300
11 | CCCCc1ccc(-c2ccc(C(=O)NCCC(=O)N[C@@H](CCCCN)C(=O)N[C@H](C(=O)N[C@@H](C)C(=O)N[C@@H](CC(N)=O)C(=O)NCB(O)O)C(C)O)cc2)cc1 (stereo partly drawn) [Compound 118] ({Biphenylcarbonyl(4'-Bu)-βAla}-K[Thr(3ξ)]AN-boroGly) | – | 9.4 | 11 (≈ 13.8 µM) | 0.71 (≈ 0.891 µM) | 1100
12 | CCCCc1ccc(-c2ccc(C(=O)N[C@H](CO)C(=O)N[C@H](C)C(=O)NCC(=O)N(C)[C@@H](CCC(=O)O)C(=O)N[C@@H](C)C(=O)N[C@@H](CC(N)=O)C(=O)NCB(O)O)cc2)cc1 [Compound 119] ({Biphenylcarbonyl(4'-Bu)}-[dS][dA]G[NMeE]AN-boroGly) | – | 59 | >64 | >64 | 290
13 | CCCCc1ccc(-c2ccc(C(=O)N[C@H](CO)C(=O)N[C@H](C)C(=O)NCC(=O)N(C)[C@@H](CCCCN)C(=O)N[C@@H](C)C(=O)N[C@@H](CC(N)=O)C(=O)NCB(O)O)cc2)cc1 [Compound 120] ({Biphenylcarbonyl(4'-Bu)}-[dS][dA]G[NMeK]AN-boroGly) | – | 100 | 32 (≈ 37.5 µM) | >64 | 1600
14 | CCCCc1ccc(-c2ccc(C(=O)NCCC(=O)N[C@@H](CCCCN)C(=O)N[C@H](C(=O)N[C@@H](C)C(=O)N[C@@H](CC(N)=O)C(=O)N[C@@H](C)B3OC4C[C@@H]5C[C@@H](C5(C)C)[C@]4(C)O3)C(C)O)cc2)cc1 (stereo partly drawn) [Compound 121] ({Biphenylcarbonyl(4'-Bu)-βAla}-K[Thr(3ξ)]AN-X1) | – | – | 0.5 (≈ 0.529 µM) | 0.25 (≈ 0.265 µM) | –
15 | CCCCCCCCCCCCCC(=O)N[C@H](CO)C(=O)N[C@H](C)C(=O)NCC(=O)N(C)[C@H](C(=O)N[C@@H](C)C(=O)N[C@@H](CC(C)C)C(=O)NCB(O)O)C(C)O (stereo partly drawn) [Compound 122] (Myristoyl-[dS][dA]G[NMeThr(3ξ)]AL-boroGly) | – | 7.6 | >64 | 40 (≈ 50 µM) | 1500
16 | CCCCCCCCCCCCCC(=O)N[C@H](CO)C(=O)N[C@H](C)C(=O)NCC(=O)N(C)[C@H](C(=O)N[C@@H](C)C(=O)N[C@@H](CC(C)C)C(=O)N[C@@H](C)B1OC2C3CCC(C3(C)C)C2(C)O1)C(C)O (stereo partly drawn) [Compound 123] (Myristoyl-[dS][dA]G[NMeThr(3ξ)]AL-X5) | – | 42 | 25 (≈ 26.4 µM) | 64 (≈ 67.5 µM) | 220
